Results reported in patent US9320760B2, “Compositions and methods of use of compounds to increase cancer patient survival time” (BioNumerik Pharmaceuticals, Inc., priority 2008, dated 2016).
Entries after “also recorded” stand apart in the source; their conditions may differ.

Molecular target: T1, Thioredoxin Reductase (Bos taurus, UniProt O62768)
T1 sequence (O62768 1-499): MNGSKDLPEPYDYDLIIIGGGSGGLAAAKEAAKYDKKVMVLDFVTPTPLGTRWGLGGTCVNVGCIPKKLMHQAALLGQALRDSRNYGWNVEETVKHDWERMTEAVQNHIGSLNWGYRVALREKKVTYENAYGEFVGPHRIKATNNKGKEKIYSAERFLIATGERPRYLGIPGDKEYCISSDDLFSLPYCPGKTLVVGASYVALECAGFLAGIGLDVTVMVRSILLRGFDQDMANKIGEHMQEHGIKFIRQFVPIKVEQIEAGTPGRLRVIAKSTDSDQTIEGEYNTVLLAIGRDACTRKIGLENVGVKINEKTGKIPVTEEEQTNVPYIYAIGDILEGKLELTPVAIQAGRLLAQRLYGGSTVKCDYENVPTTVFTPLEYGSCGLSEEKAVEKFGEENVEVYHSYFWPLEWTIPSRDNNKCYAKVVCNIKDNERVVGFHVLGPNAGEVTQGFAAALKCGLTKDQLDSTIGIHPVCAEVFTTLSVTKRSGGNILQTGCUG
Assay: NADPH oxidation at 340 nm, thioredoxin reductase only
Assay type: biochemical, bovine
Experimental: Biochemistry 21:6628-6633 (1982).
Data was then collected and plotted in Microsoft Excel. Error calculations, and graphical representations were performed in Microsoft Excel and Kaleidograph (ver. 3.5). Nonlinear data was graphically rendered using Kaleidograph. ANOVA and other statistical analyses were performed using SAS (ver. 8.2). Unless otherwise noted, significance level was set at 0.05, and error bars represent actual experimental standard deviation.
It should be noted that for the purposes of FIG. 17 only, thioredoxin is labeled TXR and thioredoxin reductase is labeled TRR.

For `O=S(=O)([O-])CCSSCCS(=O)(=O)[O-].[Na+].[Na+]` [Tavocept™, disodium 2,2′-dithio-bis-ethane sulfonate], the “NADPH Oxidation, Thioredoxin Reductase only” value (Disulfide 0.5 mM, minimum of triplicate assays) was 0.3 ± 0.01 nmol/min/mL, the “NADPH oxidation by TXR in the absence of TX” value (FIG. 17) was “indistinguishable from background” and the “substrate for thioredoxin reductase alone” value (result in words) was “not thioredoxin reductase alone; also recorded: not for TXR”.
